Consider four molecules from PubChem BioAssay AID1259407 (Chemical Carcinogenesis Research Information System (CCRIS), 2018).

Activity calls are given as the source filed them. How the calls were made is not given here.

The series concerns CCRIS mutagenicity, Ames/micronucleus/aberration tests. As to the kind of experiment: CCRIS mutagenicity studies.
[1] abbreviates: Test System: AMES SALMONELLA TYPHIMURIUM, Strain/Indicator: TA100, Metabolic Activation: NONE, Method: PREINCUBATION
The mark [2] stands for this setting: Test System: AMES SALMONELLA TYPHIMURIUM, Strain/Indicator: TA1535, Metabolic Activation: NONE, Method: PREINCUBATION

Consider `C1=Cc2c3c1cccc3cc1ccc3ccccc3c21`, for which the mutagenic call was “active; positive” (Test System: AMES SALMONELLA TYPHIMURIUM, Strain/Indicator: TA98, Metabolic Activation: HUMAN, LIVER, MICROSOMES, Method: STANDARD PLATE); “active; positive” (Test System: AMES SALMONELLA TYPHIMURIUM, Strain/Indicator: TA98, Metabolic Activation: RAT, LIVER, HEPATOCYTES, Method: PREINCUBATION); “active; positive” (Test System: AMES SALMONELLA TYPHIMURIUM, Strain/Indicator: TA98, Metabolic Activation: RAT, LIVER, MICROSOMES, AROCLOR 1254, Method: STANDARD PLATE); “active; positive” (Test System: AMES SALMONELLA TYPHIMURIUM, Strain/Indicator: TA98, Metabolic Activation: RAT, LIVER, MICROSOMES, Method: STANDARD PLATE); “active; positive” (Test System: AMES SALMONELLA TYPHIMURIUM, Strain/Indicator: TA98, Metabolic Activation: RAT, LUNG, MICROSOMES, AROCLOR 1254, Method: STANDARD PLATE); “inactive; negative” (Test System: AMES SALMONELLA TYPHIMURIUM, Strain/Indicator: TA98, Metabolic Activation: RAT, LUNG, MICROSOMES, Method: STANDARD PLATE). Further, the mutagenic call reads like this: (Test System: CHINESE HAMSTER OVARY, Strain/Indicator: V-79/6-THIOGUANINE, Metabolic Activation: RAT, LIVER, S-9, AROCLOR 1254, Method: FLASK ASSAY) “active; positive”; (Test System: CHINESE HAMSTER OVARY, Strain/Indicator: V-79/6-THIOGUANINE, Metabolic Activation: SHE CELL MEDIATED, Method: FLASK ASSAY) “active; positive”; (Test System: CHINESE HAMSTER V-79, Strain/Indicator: V-79/6-THIOGUANINE, Metabolic Activation: RAT, LIVER, S-9, AROCLOR 1254, Method: SUSPENSION/PLATE) “active; positive”; (Test System: CHINESE HAMSTER V-79, Strain/Indicator: V-79/6-THIOGUANINE, Metabolic Activation: SHE CELL-MEDIATED, Method: SUSPENSION/PLATE) “active; positive”; (Test System: MOUSE LYMPHOMA, Strain/Indicator: L5178Y (TK+/TK-), Metabolic Activation: RAT, LIVER, S-9, AROCLOR 1254, Method: SUSPENSION/PLATE) “active; positive”; (Test System: UDS RAT HEPATOCYTES, Strain/Indicator: THY INCORP, Metabolic Activation: NONE, Method: LIQUID SCINTILLATION COUNTING) “active; positive”.
For `Cc1ccc(CCC2CO2)cc1` (stereo not drawn), the mutagenic call reads like this: under setting [1], “inactive; negative”; (Test System: AMES SALMONELLA TYPHIMURIUM, Strain/Indicator: TA100, Metabolic Activation: NONE, Method: STANDARD PLATE) “active; positive”; under setting [2], “inactive; negative”; (Test System: AMES SALMONELLA TYPHIMURIUM, Strain/Indicator: TA1535, Metabolic Activation: NONE, Method: STANDARD PLATE) “active; positive”.
In the case of `CCN(CC)c1ccc(-c2ccccc2)c(-c2ccccc2)c1N(CC)CC`, the mutagenic call runs as follows: (Test System: AMES SALMONELLA TYPHIMURIUM, Strain/Indicator: TA1538, Metabolic Activation: NONE, Method: STANDARD PLATE) “active; positive”; (Test System: AMES SALMONELLA TYPHIMURIUM, Strain/Indicator: TA1538, Metabolic Activation: RAT, LIVER, S-9, AROCLOR 1254, Method: STANDARD PLATE) “active; positive”.
`Oc1cccc(Nc2ccccc2)c1`: the mutagenic call (Test System: AMES SALMONELLA TYPHIMURIUM, Strain/Indicator: TA97, Metabolic Activation: HAMSTER, LIVER, S-9, AROCLOR 1254 (10%), Method: PREINCUBATION) was “inactive; negative”; the mutagenic call (Test System: AMES SALMONELLA TYPHIMURIUM, Strain/Indicator: TA97, Metabolic Activation: HAMSTER, LIVER, S-9, AROCLOR 1254 (30%), Method: PREINCUBATION) was “inactive; negative”; the mutagenic call (Test System: AMES SALMONELLA TYPHIMURIUM, Strain/Indicator: TA97, Metabolic Activation: NONE, Method: PREINCUBATION) is “inactive; negative”; the mutagenic call (Test System: AMES SALMONELLA TYPHIMURIUM, Strain/Indicator: TA97, Metabolic Activation: RAT, LIVER, S-9, AROCLOR 1254 (10%), Method: PREINCUBATION) was “inactive; negative”; the mutagenic call (Test System: AMES SALMONELLA TYPHIMURIUM, Strain/Indicator: TA97, Metabolic Activation: RAT, LIVER, S-9, AROCLOR 1254 (30%), Method: PREINCUBATION) was “inactive; negative”; the mutagenic call (Test System: AMES SALMONELLA TYPHIMURIUM, Strain/Indicator: TA98, Metabolic Activation: HAMSTER, LIVER, S-9, AROCLOR 1254 (10%), Method: PREINCUBATION) is “inactive; negative”. Besides, the mutagenic call is “inactive; negative” (Test System: AMES SALMONELLA TYPHIMURIUM, Strain/Indicator: TA98, Metabolic Activation: HAMSTER, LIVER, S-9, AROCLOR 1254 (30%), Method: PREINCUBATION); “inactive; negative” (Test System: AMES SALMONELLA TYPHIMURIUM, Strain/Indicator: TA98, Metabolic Activation: NONE, Method: PREINCUBATION); “inactive; negative” (Test System: AMES SALMONELLA TYPHIMURIUM, Strain/Indicator: TA98, Metabolic Activation: RAT, LIVER, S-9, AROCLOR 1254 (10%), Method: PREINCUBATION); “inactive; negative” (Test System: AMES SALMONELLA TYPHIMURIUM, Strain/Indicator: TA98, Metabolic Activation: RAT, LIVER, S-9, AROCLOR 1254 (30%), Method: PREINCUBATION); “inactive; negative” (Test System: AMES SALMONELLA TYPHIMURIUM, Strain/Indicator: TA100, Metabolic Activation: HAMSTER, LIVER, S-9, AROCLOR 1254 (10%), Method: PREINCUBATION); “inactive; negative” (Test System: AMES SALMONELLA TYPHIMURIUM, Strain/Indicator: TA100, Metabolic Activation: HAMSTER, LIVER, S-9, AROCLOR 1254 (30%), Method: PREINCUBATION). Besides, the mutagenic call reads like this: under setting [1], “inactive; negative”; (Test System: AMES SALMONELLA TYPHIMURIUM, Strain/Indicator: TA100, Metabolic Activation: RAT, LIVER, S-9, AROCLOR 1254 (10%), Method: PREINCUBATION) “inactive; negative”; (Test System: AMES SALMONELLA TYPHIMURIUM, Strain/Indicator: TA100, Metabolic Activation: RAT, LIVER, S-9, AROCLOR 1254 (30%), Method: PREINCUBATION) “inactive; negative”; (Test System: AMES SALMONELLA TYPHIMURIUM, Strain/Indicator: TA1535, Metabolic Activation: HAMSTER, LIVER, S-9, AROCLOR 1254 (10%), Method: PREINCUBATION) “inactive; negative”; (Test System: AMES SALMONELLA TYPHIMURIUM, Strain/Indicator: TA1535, Metabolic Activation: HAMSTER, LIVER, S-9, AROCLOR 1254 (30%), Method: PREINCUBATION) “inactive; negative”; under setting [2], “inactive; negative”. Besides, the mutagenic call (Test System: AMES SALMONELLA TYPHIMURIUM, Strain/Indicator: TA1535, Metabolic Activation: RAT, LIVER, S-9, AROCLOR 1254 (10%), Method: PREINCUBATION) was “inactive; negative” and the mutagenic call (Test System: AMES SALMONELLA TYPHIMURIUM, Strain/Indicator: TA1535, Metabolic Activation: RAT, LIVER, S-9, AROCLOR 1254 (30%), Method: PREINCUBATION) is “inactive; negative”.
